We go through one sequence from patent US20110263822A1, “COMPOSITION FOR THE PROPHYLAXIS AND TREATMENT OF HBV INFECTIONS AND HBV-MEDIATED DISEASES” (Rhein Biotech Gesellschaft Fur Neue Biotechnologische …, priority 2003, published 2011).

Ends that are not written are not given here.

This experiment concerns the target MHC class I molecules K^b (Mus musculus, UniProt P01901). The experiment is described as follows: biochemical. Conditions: 48 hours at 18° C.; read-out: K^b-binding.

MHC class I molecules K^b, sequence (P01901 whole entry, looked up): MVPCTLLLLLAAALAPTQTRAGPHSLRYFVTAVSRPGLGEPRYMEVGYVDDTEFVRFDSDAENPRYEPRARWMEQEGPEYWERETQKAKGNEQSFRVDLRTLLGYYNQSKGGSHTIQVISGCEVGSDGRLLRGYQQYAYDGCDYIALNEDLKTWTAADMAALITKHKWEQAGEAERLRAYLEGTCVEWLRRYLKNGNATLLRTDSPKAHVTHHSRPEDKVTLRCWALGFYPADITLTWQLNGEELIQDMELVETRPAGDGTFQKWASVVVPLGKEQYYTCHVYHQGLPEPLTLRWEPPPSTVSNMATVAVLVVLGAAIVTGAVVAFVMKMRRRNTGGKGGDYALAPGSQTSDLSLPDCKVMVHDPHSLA

In the case of IVSPFIPL [IVSPFIPL], the IC50 was determined as 773 nM.
